Reference: patent US20040023919A1, “Blood lipid ameliorant composition” (SANKYO COMPANY, LIMITED, priority 2000, published 2004)

Columns and labels:
Format in all cases: in vivo, Beagle dogs
Blood FFA = Blood FFA levels in dogs after oral administration (Table 8); details: relative ratio against averaged pre-dosing level (100), oral once daily, atorvastatin 2 mg/kg, AA 500 mg/kg, mean of 5 animals
[1] = tested on: lipid peroxides in the blood; experiment: Blood lipid peroxide levels in dogs after oral administration for 11 days (Yagi's method); details: relative ratio against averaged pre-dosing level (100), oral once daily, atorvastatin 2 mg/kg, mean of 5 animals
Source text: (§1) Atorvastatin was synthesized at Chemtech Labo.
(§2) Beagle dogs aged 5 months were purchased from Covance Research Products Inc. and used after 1 month of quarantine and acclimatisation breeding.
(§3) The required amounts of atorvastatin or each component of the combination drug calculated from the body weight of each dog were weighed and filled in a gelatin capsule (½ ounce) purchased from TORPAC Inc. Capsules filled with atorvastatin were stocked in a refrigerator and those filled with combination drugs stocked at room temperature until use.
(§4) Atorvastatin or combination drug capsules were forcibly orally administered to each of the test animals once daily between 9:00 and 12:30. Animals were fasted for 2 or 3 hr prior to administration of the capsules.
(§5) The administration period was 11 successive days.
(§6) Blood (10 mL) was collected from the superficial radial vein 2 or 1 weeks prior to administration and 4, 8, and 12 days after administration was started. Animals were fasted for approximately 18 hr prior to blood collection. Collected blood was placed in a test tube, left at room temperature for 0.5-1 hr, then centrifuged (3,000 rpm for 10 min). The obtained serum was used for assays of blood levels of total cholesterol, lipid peroxides and triglycerides according to CEH-COD-POD (Cholesterol ester hydrolase-Cholesteroloxidase-Peroxidase) methods, Yagi's methods and GK-GPO-POD (Glycerokinase-Glycerolphosphateoxidase-Peroxidase) methods respectively.
(§7) All these values were converted to their relative ratios against their averaged pre-dosing levels (100) determined 2 and 1 weeks prior to drug administration. The averaged value in each group was obtained from 5 animals per group.

GOT = GOT levels in dogs after oral administration (Table 9); details: relative ratio against averaged pre-dosing level (100), oral once daily, atorvastatin 2 mg/kg, pantethine 300 mg/kg, mean of 5 animals
Source text: Atorvastatin was synthesized at Chemtech Labo. Inc., and riboflavin butyrate, d-α-tocopherol acetate, ascorbic acid, pantethine and taurine were purchased from Mitsubishi-Tokyo Pharmaceutical Inc., Eisai Co., Ltd., NIPPON ROCHE K.K., Nacalai Tesque, Inc. and Dai-ich Pharmaceutical Co., Ltd., respectively.
as §2, §3, §4, §5
Blood (10 mL) was collected from the superficial radial vein 2 or 1 weeks prior to administration and 4, 8, and 12 days after administration was started. Animals were fasted for approximately 18 hr prior to blood collection. Collected blood was placed in a test tube, left at room temperature for 0.5-1 hr, then centrifuged (3,000 rpm for 10 min). […]
(§8) All these levels were determined using a fluorometer (Hitachi, Ltd., F3000), a full automatic analyzer (Monarch, Instrumentation Laboratory), and an automatic analyzer (7170, Hitachi, Ltd.).
Total cholesterol levels and so forth in the blood collected from dogs treated with either atorvastatin alone or a combination drug consisting of atorvastatin plus one of riboflavin butyrate, d-α-tocopherol acetate, ascorbic acid, pantethine and taurine were determined. All these values were converted to their relative ratios against their averaged pre-dosing levels (100) determined 2 and 1 weeks prior to drug administration. […]

[2] = tested on: total cholesterol in the blood; experiment: Blood total cholesterol levels in dogs after oral administration for 11 days (CEH-COD-POD method); details: relative ratio against averaged pre-dosing level (100), oral once daily, mean of 5 animals
Source text: as §1, §2, §3, §4, §5
as §6, with “respectively. (For assay method, see: Kanai's Manual of Clinical Laboratory Medicine; 31st Edition (September 1998), Kanehara & Co., Ltd.).” for “respectively.”
as §8, §7

[3] = tested on: triglycerides in the blood; experiment: Blood triglyceride levels in dogs after oral administration for 11 days (GK-GPO-POD method); details: relative ratio against averaged pre-dosing level (100), oral once daily, statin 2 mg/kg, taurine 1000 mg/kg, mean of 5 animals
Source text: as §1, §2, §3, §4, §5
as §6, with “respectively. (For assay method, see: Kanai's Manual of Clinical Laboratory Medicine; 31st Edition (September 1998), Kanehara & Co., Ltd.).” for “respectively.”
as §8, §7

[4] = atorvastatin 2 mg/kg, RFVb 200 mg/kg
[5] = atorvastatin 2 mg/kg, Tocoph 300 mg/kg
[6] = statin 2 mg/kg, taurine 1000 mg/kg

Row | Structure (SMILES) | Blood FFA Levels after administration, 4 days (Blood FFA) | Blood FFA Levels after administration, 8 days (Blood FFA) | Blood FFA Levels after administration, 12 days (Blood FFA) | Blood Lipid Peroxide Levels after administration, 4 days ([1]; Tocoph 300 mg/kg) | Blood Lipid Peroxide Levels after administration, 8 days ([1]; Tocoph 300 mg/kg) | Blood Lipid Peroxide Levels after administration, 12 days ([1]; Tocoph 300 mg/kg) | Blood Total Cholesterol Levels after administration, 4 days [2, 4] | Blood Total Cholesterol Levels after administration, 4 days [2, 5] | Blood Total Cholesterol Levels after administration, 8 days [2, 4] | Blood Total Cholesterol Levels after administration, 8 days [2, 5] | Blood Total Cholesterol Levels after administration, 12 days [2, 4] | Blood Total Cholesterol Levels after administration, 12 days [2, 5] | also measured
1 | CC(C)c1c(C(=O)Nc2ccccc2)c(-c2ccccc2)c(-c2ccc(F)cc2)n1CC[C@@H](O)C[C@@H](O)CC(=O)O (relative stereo) [Atorvastatin alone, [R-(R*,R*)]-2-(4-fluorophenyl)-β,δ-dihydroxy-5-(1-methylethyl)-3-phenyl-4-[phenylamino]carbonyl]-1H-pyrrole-1-heptanoic acid] | 102.9 | 95.5 | 90.9 | 104.5 | 84.4 | 80.9 | 102.9 | 102.9 | 95.5 | 95.5 | 90.9 | 90.9 | Blood Lipid Peroxide Levels after administration, 4 days ([1]; pantethine 300 mg/kg): 104.5; Blood Lipid Peroxide Levels after administration, 8 days ([1]; pantethine 300 mg/kg): 84.4; Blood Lipid Peroxide Levels after administration, 12 days ([1]; pantethine 300 mg/kg): 80.9; GOT Levels after administration, 4 days (GOT; 4 days): 102.9; GOT Levels after administration, 8 days (GOT; 8 days): 95.5; GOT Levels after administration, 12 days (GOT; 12 days): 90.9
2 | O=C1O[C@H]([C@@H](O)CO)C(O)=C1O [AA alone, ascorbic acid] | 95.9 | 96.7 | 98.9 |  |  |  |  |  |  |  |  |  | 
3 | CCCC(=O)OC[C@@H](OC(=O)CCC)[C@@H](OC(=O)CCC)[C@H](Cn1c2nc(=O)[nH]c(=O)c-2nc2cc(C)c(C)cc21)OC(=O)CCC [RFVb alone, riboflavin butyrate] |  |  |  |  |  |  | 99.5 |  | 99.0 |  | 97.2 |  | 
4 | CCC(C)(C)C(=O)O[C@H]1C[C@@H](C)C=C2C=C[C@H](C)[C@H](CC[C@@H]3C[C@@H](O)CC(=O)O3)[C@H]21 [Simvastatin alone] |  |  |  |  |  |  |  |  |  |  |  |  | Blood Triglyceride Levels after administration, 4 days ([3]; 4 days): 87.1; Blood Triglyceride Levels after administration, 8 days ([3]; 8 days): 86.7; Blood Triglyceride Levels after administration, 12 days ([3]; 12 days): 74.1; Blood Total Cholesterol Levels after administration, 4 days [2, 6]: 102.9; Blood Total Cholesterol Levels after administration, 8 days [2, 6]: 95.5; Blood Total Cholesterol Levels after administration, 12 days [2, 6]: 90.9
5 | CC(=O)Oc1c(C)c(C)c2c(c1C)CC[C@@](C)(CCC[C@H](C)CCC[C@H](C)CCCC(C)C)O2 [Tocoph alone, d-α-tocopherol acetate] |  |  |  | 106.3 | 119.0 | 75.9 |  | 97.7 |  | 95.1 |  | 97.5 | 
